Data: US7384931B2, “Constrained compounds as CGRP-receptor antagonists” (Bristol-Myers Squibb Company, priority 2004, dated 2008)

Key:
[1] = biological target: T1, CGRP receptor (Homo sapiens, UniProt O60894+Q16602); experiment: CGRP radioligand binding assay ([125I]-CGRP displacement, SK-N-MC homogenate); design: endogenous in cells; host or cells: SK-N-MC cells (homogenate/membrane pellet); conditions: displacement of [125I]-CGRP, room temperature 2 h
Outline: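 SK-N-MC cell homogenate (5 μg/well) was incubated 2 h at room temperature with [125I]-CGRP (diluted to 60 pM before addition) in 50 mM Tris-Cl pH 7.5, 5 mM MgCl2, 0.005% Triton X-100 plus protease inhibitors. Bound radioactivity was collected by filtration; 1 μM beta-CGRP defined non-specific binding. IC50 is 50% radioligand displacement.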

[2] = biological target: T1, CGRP receptor; experiment: Cyclic AMP functional antagonism assay in SK-N-MC cells; format: cell-based; design: SK—N-MC cells that endogenously express the human CGRP receptor; endogenous in cells; host or cells: SK-N-MC cells; conditions: inhibition of 0.3 nM CGRP-induced cyclic AMP formation, 15 min pre-incubation, read-out: cAMP Function IC50
Protocol: Cyclic AMP Functional Antagonism Assay. Antagonism of the compounds of invention was determined by measuring the formation of cyclic AMP (adenosine 3′5′-cyclic monophosphate) in SK—N-MC cells that endogenously express the human CGRP receptor. CGRP receptor complex is coupled with Gs protein and CGRP binding to this complex leads to the cyclic AMP production via Gs—dependent activation of an adenylate cyclase (Juaneda C et al., TiPS, 2000; 21:432-438; incorporated by reference herein). Consequently, CGRP receptor antagonists inhibit CGRP—induced cyclic AMP formation in SK—N-MC cells (Doods H et al., Br J Pharmacol, 2000; 129(3):420-423); incorporated by reference herein). For cyclic AMP measurements SK—N-MC cells were incubated with 0.3 nM CGRP alone or in the presence of various concentrations of the compounds of invention for 30 min at room temperature. Compounds of invention were pre-incubated with SK—N-MC cells for 15 min before the addition of CGRP to allow receptor occupancy (Edvinsson et al., Eur J Pharmacol, 2001, 415:39-44; incorporated by reference herein). Cyclic AMP was extracted using the lysis reagent and its concentration was determined by radioimmunoassay using RPA559 cAMP SPA Direct Screening Assay Kit (Amersham Pharmacia Biotech). IC50 values were calculated using Excel fit.

T1 sequence (Q16602 23-461): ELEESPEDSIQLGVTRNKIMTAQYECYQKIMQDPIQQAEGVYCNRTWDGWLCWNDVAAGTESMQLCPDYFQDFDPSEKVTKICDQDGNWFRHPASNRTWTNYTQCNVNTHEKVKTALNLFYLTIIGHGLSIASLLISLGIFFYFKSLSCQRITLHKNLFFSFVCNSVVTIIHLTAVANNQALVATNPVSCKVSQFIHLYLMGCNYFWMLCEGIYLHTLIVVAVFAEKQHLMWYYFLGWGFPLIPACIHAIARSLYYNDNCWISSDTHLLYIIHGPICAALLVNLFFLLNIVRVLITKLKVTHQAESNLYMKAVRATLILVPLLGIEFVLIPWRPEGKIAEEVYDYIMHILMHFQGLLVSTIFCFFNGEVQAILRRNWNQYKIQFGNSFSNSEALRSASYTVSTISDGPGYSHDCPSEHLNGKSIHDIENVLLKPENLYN
T1 sequence (O60894 27-148): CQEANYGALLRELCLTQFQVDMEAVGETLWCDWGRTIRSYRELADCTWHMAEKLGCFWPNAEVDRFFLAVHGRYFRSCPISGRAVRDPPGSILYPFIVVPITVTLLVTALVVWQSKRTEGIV

Row | IC50 [1] [nM] | IC50 [2] [nM] | Structure (SMILES)
1 | 0.1 to 10 | 0.1 to 10 | O=C(C[C@@H]1Cc2cc(Cl)c3[nH]ncc3c2CN(Cc2ccncc2)C1=O)N1CCC(N2Cc3ccccc3NC2=O)CC1 [Example 49, (S)-4-Chloro-7-(2-oxo-2-(4-(2-oxo-1,2-dihydroquinazolin-3(4H)-yl)piperidin-1-yl)ethyl)-9-(pyridin-4-ylmethyl)-6,7,9,10-tetrahydroazepino[3,4-e]indazol-8(3H)-one]
2 | 0.1 to 10 | 0.1 to 10 | O=C(C[C@@H]1Cc2cc(Cl)c3[nH]ncc3c2CN(Cc2ccncc2)C1=O)N1CCC(N2Cc3cccc(F)c3NC2=O)CC1 [Example 50, (S)-4-Chloro-7-(2-(4-(8-fluoro-2-oxo-1,2-dihydroquinazolin-3(4H)-yl)piperidin-1-yl)-2-oxoethyl)-9-(pyridin-4-ylmethyl)-6,7,9,10-tetrahydroazepino[3,4-e]indazol-8(3H)-one]
3 | 0.1 to 10 | 0.1 to 10 | O=C(C[C@@H]1Cc2cc(Cl)c3[nH]ncc3c2CN(Cc2ccncc2)C1=O)N1CCC(c2cc3ccccc3[nH]c2=O)CC1 [Example 52, (S)-4-Chloro-7-(2-oxo-2-(4-(2-oxo-1,2-dihydroquinolin-3-yl)piperidin-1-yl)ethyl)-9-(pyridin-4-ylmethyl)-6,7,9,10-tetrahydroazepino[3,4-e]indazol-8(3H)-one]
4 | 0.1 to 10 | 0.1 to 10 | O=C(C[C@@H]1Cc2cc(Cl)c3[nH]ncc3c2CN(Cc2ccncc2)C1=O)N1CCC(n2cc(-c3ccccc3)[nH]c2=O)CC1 [Example 53, (S)-4-Chloro-7-(2-oxo-2-(4-(2-oxo-4-phenyl-2,3-dihydroimidazol-1-yl)piperidin-1-yl)ethyl)-9-(pyridin-4-ylmethyl)-6,7,9,10-tetrahydroazepino[3,4-e]indazol-8(3H)-one]
5 | 0.1 to 10 | 0.1 to 10 | O=C(C[C@@H]1Cc2cc(Cl)c3[nH]ncc3c2CN(Cc2ncc[nH]2)C1=O)N1CCC(N2Cc3ccccc3NC2=O)CC1 [Example 54, (S)-9-((1H-Imidazol-2-yl)methyl)-4-chloro-7-(2-oxo-2-(4-(2-oxo-1,2-dihydroquinazolin-3(4H)-yl)piperidin-1-yl)ethyl)-6,7,9,10-tetrahydroazepino[3,4-e]indazol-8(3H)-one]
6 | 10 to 100 | 10 to 100 | CC(C)(C)CN1Cc2c(cc(Cl)c3[nH]ncc23)C[C@@H](CC(=O)N2CCC(c3cc4cnccc4[nH]c3=O)CC2)C1=O [Example 80, 1-[[(7S)-4-chloro-9-(2,2-dimethylpropyl)-3,6,7,8,9,10-hexahydro-8-oxoazepino[3,4-e]indazol-7-yl]acetyl]-4-(1,2-dihydro-2-oxo-1,6-naphthyridin-3-yl)-piperidine]
7 | 10 to 100 | 10 to 100 | O=C(C[C@@H]1Cc2cc(Cl)c3[nH]ncc3c2CN(Cc2ccncc2)C1=O)N1CCC(c2cc3ccccc3cn2)CC1 [Example 85, (S)-4-chloro-7-(2-(4-(isoquinolin-3-yl)piperidin-1-yl)-2-oxoethyl)-9-(pyridin-4-ylmethyl)-6,7,9,10-tetrahydroazepino[3,4-e]indazol-8(3H)-one]

Further lines, the molecule ahead of its results:

Row | Structure (SMILES) | IC50 [1] [nM] | IC50 [2] [nM]
8 | CC(C)(C)CN1Cc2c(cc(Cl)c3[nH]ncc23)C[C@@H](CC(=O)N2CCC(N3Cc4ccccc4CC3=O)CC2)C1=O [Example 41, (S)-4-Chloro-9-neopentyl-7-(2-oxo-2-(4-(3-oxo-3,4-dihydroisoquinolin-2(1H)-yl)piperidin-1-yl)ethyl)-6,7,9,10-tetrahydroazepino[3,4-e]indazol-8(3H)-one] | 0.1 to 10 | 0.1 to 10
9 | CC(C)(C)CN1Cc2c(ccc3[nH]ncc23)C[C@@H](CC(=O)N2CCC(c3cc4ccccc4[nH]c3=O)CC2)C1=O [Example 42, (S)-9-Neopentyl-7-(2-oxo-2-(4-(2-oxo-1,2-dihydroquinolin-3-yl)piperidin-1-yl)ethyl)-6,7,9,10-tetrahydroazepino[3,4-e]indazol-8(3H)-one] | 10 to 100 | 10 to 100
10 | CC(C)(C)CN1Cc2c(cc(Cl)c3[nH]ncc23)C[C@@H](CC(=O)N2CCC(c3cc4ccccc4[nH]c3=O)CC2)C1=O [Example 43, (S)-4-Chloro-9-neopentyl-7-(2-oxo-2-(4-(2-oxo-1,2-dihydroquinolin-3-yl)piperidin-1-yl)ethyl)-6,7,9,10-tetrahydroazepino[3,4-e]indazol-8(3H)-one] | 0.1 to 10 | 0.1 to 10
11 | CC(C)(C)CN1Cc2c(cc(Cl)c3[nH]ncc23)C[C@@H](CC(=O)N2CCC(n3cc(-c4ccccc4)[nH]c3=O)CC2)C1=O [Example 44, (S)-4-Chloro-9-neopentyl-7-(2-oxo-2-(4-(2-oxo-4-phenyl-2,3-dihydroimidazol-1-yl)piperidin-1-yl)ethyl)-6,7,9,10-tetrahydroazepino[3,4-e]indazol-8(3H)-one] | 0.1 to 10 | 0.1 to 10
12 | CC(C)(C)CN1Cc2c(cc(Cl)c3[nH]ncc23)C[C@@H](CC(=O)N2CCC(n3cc(-c4ccccn4)[nH]c3=O)CC2)C1=O [Example 45, (S)-4-Chloro-9-neopentyl-7-(2-oxo-2-(4-(2-oxo-4-(pyridin-2-yl)-2,3-dihydroimidazol-1-yl)piperidin-1-yl)ethyl)-6,7,9,10-tetrahydroazepino[3,4-e]indazol-8(3H)-one] | 0.1 to 10 | 0.1 to 10
13 | CC(C)(C)CN1Cc2c(cc(Cl)c3[nH]ncc23)C[C@@H](CC(=O)N2CCC3(CC2)NC(=O)Nc2ccccc23)C1=O [Example 46] | 0.1 to 10 | 0.1 to 10
14 | CC(C)(C)CN1Cc2c(cc(Cl)c3[nH]ncc23)C[C@@H](CC(=O)N2CCC(c3cc4cccc(F)c4[nH]c3=O)CC2)C1=O [Example 47, (S)-4-Chloro-7-(2-(4-(8-fluoro-2-oxo-1,2-dihydroquinolin-3-yl)piperidin-1-yl)-2-oxoethyl)-9-neopentyl-6,7,9,10-tetrahydroazepino[3,4-e]indazol-8(3H)-one] | 10 to 100 | 10 to 100
